According to PMC9221018, “Sulfonamide-Derived Dithiocarbamate Gold(I) Complexes Induce the Apoptosis of Colon Cancer Cells by the Activation of Caspase 3 and Redox Imbalance” (Biomedicines, 2022):
Where two headings read alike, the source gives them in different places.

Assays:
[1] = test system: Caco-2 cells; assay: MTT cytotoxicity assay in undifferentiated Caco-2 cells; assay type: cell-based, human
Procedure: (§1) The human Caco-2 cell line (TC7 clone) was kindly provided by Dr. Edith Brot-Laroche (Université Pierre et Marie Curie-Paris 6, UMR S 872, Les Cordeliers, France). Human epithelial fibroblast cells (NHDF-Ad, Lonza®®, Porriño, Spain) were kindly provided by Dr. Gracia Mendoza (Aragon Health Research Institute, IIS Aragón, Spain). Caco-2 cells (passages 40–70) and fibroblasts (passages 10–30) were maintained in a humidified atmosphere of 5% CO2 at 37 °C and grown in medium following the method used by Quero et al.. The Caco-2 cells were sub-cultured in 25 cm^2 plastic flasks at a density of 1.2 × 10^4 cells/cm^2, while the fibroblasts were sub-cultured on 75 cm^2 plastic flasks at a density of 1 × 10^4 cells/cm^2. The culture medium was replaced every 2 days.
(§2) The gold complexes were diluted in dimethyl sulfoxide (DMSO) as a 10 mM stock solution, and then diluted in cell culture medium at the desired concentrations.
(§3) For the cytotoxicity screening assays, Caco-2 cells were seeded in 96-well plates at a density of 4 × 10^3 cells/well. The culture medium was replaced with medium containing the drug panel 24 h post-seeding, and the cells were incubated for 24, 48 and 72 h. […] In differentiated Caco-2 and fibroblasts, culture medium containing metal gold complexes was added 15 days post-seeding, and the cells were incubated for 72 h. The antiproliferative effect was measured using an MTT assay, as previously described by Mármol et al.. The absorbance at 540/620 nm was measured using a SPECTROstar Nano (BMG Labtech, Ortenberg, Germany). In order to determine the selectivity index (SI), the IC50 value of the differentiated Caco-2 cells was divided by IC50 value in undifferentiated Caco-2, obtaining the ratio of the normal/cancerous cells’ toxicity.

[2] = n-octanol-water distribution coefficient, shake-flask method; assay type: physicochemical; settings: n-octanol/buffered saline pH 7.4, shake-flask
Procedure: The n-octanol−water coefficients of the complexes were determined using a shake-flask method, as reported previously. Briefly, 100 mL buffered-saline (0.15 M NaCl, 10 mM phosphate [PO4^3−] buffer, pH 7.4) and 100 mL n-octanol were shaken for 72 h. The addition of 1 mg of the complexes followed by the centrifugation and separation of both phases gave two solutions, which were analysed by UV absorbance spectroscopy to determine their concentration in each phase. The corresponding value of log P was defined as log{[compound(organic)]/[compound(aqueous)]}.

[3] = test system: Human epithelial fibroblast cells (NHDF-Ad); assay: MTT viability assay in human epithelial fibroblasts; assay type: cell-based; settings: complexes at their IC50 (1 1.14 μM, 3 1.7 μM, 8 7.22 μM, 9 8.56 μM), 72 h
Procedure: as §1, §2, §3

[4] = test system: differentiated Caco-2 cells; assay: MTT cytotoxicity assay in differentiated Caco-2 cells (healthy cell model); assay type: cell-based, human; settings: for decrease of cell viability: complexes at their IC50 (1 1.14 μM, 3 1.7 μM, 8 7.22 μM, 9 8.56 μM), 72 h; for IC50: treatment for 72 h
Procedure: as §1, §2, §3

[5] = treatment for 72 h, read-out: IC50
[6] = 24 h incubation, read-out: IC50 24 h
[7] = 48 h incubation, read-out: IC50 48 h
[8] = 72 h incubation, read-out: IC50 72 h

In the case of `Cc1ccc(S(=O)(=O)NC(=S)[S][Au][PH](c2cccc(S(=O)(=O)[O-])c2)(c2cccc(S(=O)(=O)[O-])c2)c2cccc(S(=O)(=O)[O-])c2)cc1.[Na+].[Na+].[Na+]` [Complex 5, [Au(S2CNHSO2-p-Me-C6H4)(TPPTS)]], the IC50 [1, 5] is reported as 31.8 ± 6.05 µM and the “Log P7.4” value [2] is reported as −0.78.

In the case of `C#CCn1ccn(C)[c]1=[Au-].O=S(=O)(NC(=S)[S-])c1ccccc1` [Complex 7, [Au(S2CNHSO2C6H5)(IMePropargyl)]], the IC50 [1, 5] is reported as 33.3 ± 5.01 µM and the “Log P7.4” value [2] is reported as 0.35.

In the case of `C#CCn1ccn(Cc2ccccc2)[c]1=[Au-].O=S(=O)(NC(=S)[S-])c1ccccc1` [Complex 9, [Au(S2CNHSO2C6H5)(IBnPropargyl)]], the “decrease of cell viability” value [3] is reported as “approximately 39%”, the IC50 [1, 6] is reported as 31.2 ± 6.85 µM and the IC50 [1, 7] is reported as 15.5 ± 1.89 µM. The IC50 [1, 8] was 8.56 ± 1.68 µM, the IC50 [1, 5] was 8.56 ± 1.68 µM and the “decrease of cell viability” value [4] was “approximately 39%”. For the same molecule, the IC50 [4] was 19.5 ± 2.64 µM and the “Log P7.4” value [2] was 0.42.

For “[Au(S2CNHSO2-p-Cl-C6H4)(PPh3)] [Complex 3]”, the “decrease of cell viability” value [3] was “did not compromise the viability”, the IC50 [1, 6] was 2.48 ± 0.14 µM and the IC50 [1, 7] was 1.51 ± 0.1 µM. The IC50 [1, 8] was 1.7 ± 0.15 µM, the IC50 [1, 5] was 1.7 ± 0.15 µM and the “decrease of cell viability” value [4] was “did not compromise the viability”. The IC50 [4] was 14.3 ± 0.19 µM and the “Log P7.4” value [2] was 0.91.

With “[Au(S2CNHSO2-p-Cl-C6H4)(TPPTS)] [Complex 6]” the IC50 [1, 5] was 33.7 ± 2.74 µM and the “Log P7.4” value [2] was −0.83.

Work on “[Au(S2CNHSO2-p-Me-C6H4)(IBnPropargyl)] [Complex 10]” yielded an IC50 [1, 5] of 13.2 ± 3.34 µM.

With “[Au(S2CNHSO2-p-Me-C6H4)(PPh3)] [Complex 2]” the IC50 [1, 5] was 1.25 ± 0.35 µM and the “Log P7.4” value [2] was 0.71.

In the case of [Au(S2CNHSO2C6H5)(TPPTS)] [Complex 4], the IC50 [1, 5] is reported as 46.7 ± 5.61 µM and the “Log P7.4” value [2] is reported as −0.40.
